Test results taken from article PMC9656801, “Synthesis of Cyclotetrapeptides Analogues to Natural Products as Herbicides” (Molecules, 2022).
Where two headings read alike, the source gives them in different places. Non-standard residues stand in square brackets, D forms with d. Residues, ends and D or L forms follow the SMILES beside them. NMeF = CN[C@@H](Cc1ccccc1)C(=O)O; dNMeF = CN[C@H](Cc1ccccc1)C(=O)O; NMeA = CN[C@@H](C)C(=O)O; Sar = CNCC(=O)O

How the values were obtained:
[1] = tested on: HepG2 cells; conditions: cited from earlier work
[2] = tested on: Lolium multiflorum (Ryegrass) seeds; conditions: 67 μg/mL; cited from earlier work
[3] = tested on: cyanobacteria; conditions: cited from earlier work
[4] = amide bond, 12-membered ring
[5] = tested on: Lolium multiflorum (Ryegrass) seeds; test: whole plant or invertebrate; format: in vivo; conditions: agar germination; for Radicle growth inhibition (%): 67 µg/mL, 20 °C, evaluated after 12 days, three replicates of ten seeds, relative to DMSO negative control
Protocol: The herbicidal activity of cyclotetrapeptides 16–25, 27 and the linear precursors 4–8, 10, 12–15 were evaluated for their influence on germination, leaf development and radicle length growth of ryegrass seeds at 67 μg/mL using germination in agar methodology. DMSO was used as negative control and the herbicide S-metolachlor as positive control. […] The results were expressed as % of radicle growth inhibition, calculated as the percentage between the treatment with each compound and radicle length growth for the negative control (DMSO), as shown in Figure 3.
The experiments to determine the herbicidal activity of the cyclopeptide compounds were carried out on Lolium multiflorum (Raygrass) plants. Germination, root length and leaf development were evaluated, compared to a control without herbicide, a negative control (100 μL DMSO in 15 mL agar, used as solvent) and an herbicide control (1/8 of the commercial dose of the herbicide S-metolachlor).
Serial experiments were conducted using the Agar germination methodology, where the tested compounds and the respective controls were placed in glass Petri dishes (6 cm diameter) in three replicates per treatment. Ten ryegrass seeds were germinated in a growth chamber (20 °C, day/night temperature). The seeds were previously sterilized by immersing them in 70% alcohol for 10 s. When distributed in the Petri dish on the agar, the seeds were placed in such a way as to ensure that they remained submerged in the solution.
Agar–water solution was prepared at 0.3%, 3 g of agar was placed in 1 liter of deionized water, and the solution was autoclaved at 100 °C for 45 min. Once the agar medium had cooled to approximately 60 °C, the solutions were prepared.
The negative control–DMSO control was prepared by adding 100 μL of DMSO per plate in 15 mL of agar and then the seeds were distributed, as mentioned above. A control without DMSO was also carried out to check that the product was not altering the correct development of the ryegrass seeds. For this test, 15 ml of agar were placed in each Petri dish and, before it solidified, the seeds of the species evaluated were placed on top. The herbicide treatment, positive control–Control S-Metolachlor (960 g/L), was carried out for a conversion of 1/8 of the dose of 1 L/ha of commercial product. For this purpose, a stock solution of S-Metolachlor was prepared by placing 0.28 mL of the herbicide in a volumetric flask and topping up to 1000 mL. A total of 25 mL of this stock solution were taken, placed in a volumetric flask and brought to 200 mL, thus, generating the 1/8x solution of S-Metolachlor. A volume of 3 mL of 1/8x herbicide solution was mixed with 45 mL of the agar solution to bring 16 mL into each Petri dish. This ensured that there was 1 mL of 1/8x S-Metolachlor solution per plate: 0.28 μL of herbicide solution. Seeds were arranged in the same way. Using the same method, the agar media corresponding to each plate (15 mL) was mixed with the cyclopeptides dissolved in 100 μL of DMSO.
Germination, root length and leaf development were evaluated 12 days after preparation. The variables of germinated plants and plants with developed leaves of the total number of plants placed to germinate were analyzed by fitting a generalized linear model, since they presented a binomial distribution.
Glinmix procedure of the SAS statistical package. Based on the model and for the comparison of the treatments with the different controls, the contrasts of interest were carried out. The effect of the treatments on the root length variable was studied by comparing means using a Tukey test (p-value < 0.05) in INFOSTAT.
5. Procedure for evaluation of phytotoxic activity
Experiments for determining the herbicidal activity of cyclopeptide compounds were carried out on Lolium multiflorum (Ray grass) plants. Germination, root length, and leaf development were evaluated compared to a control without herbicide, a negative […]

[6] = tested on: Lolium multiflorum (Ryegrass) seeds; format: in vivo; conditions: agar germination
[7] = 6 µM, 12 days, relative to DMSO control
[8] = 11 µM, 12 days, relative to DMSO control

Compound: versicotide D
- cytotoxicity on HepG2 cells [1]: low cytotoxicity
- radicle growth inhibition [2]: 74%
- inhibition of cyanobacteria population [3]: ability to inhibit cyanobacteria population

Compound: CC(C)C[C@@H]1NC(=O)[C@H](C)NC(=O)CNC(=O)[C@@H](Cc2ccccc2)NC1=O [Cyclo-[Ala-Leu-D-Phe-Gly]]
- ring closure, isolated yield ([4]; from H-Ala-Leu-dPhe-Gly-OH): 5%

Compound: CC(C)C[C@@H]1NC(=O)[C@H](C)NC(=O)CN(C)C(=O)[C@H](Cc2ccccc2)N(C)C1=O [Compound 22, Cyclo-[Ala-Leu-N-MePhe-N-MeGly]] (cyclo(AL[NMeF][Sar]))
- Radicle growth inhibition (%) [5]: 66%

Compound: CC(C)C[C@@H]1NC(=O)[C@H](C)NC(=O)CNC(=O)[C@@H](Cc2ccccc2)N(C)C1=O [Cyclo-[Ala-Leu-N-Me-D-Phe-Gly]]
- ring closure, isolated yield ([4]; from H-Ala-Leu-dMePhe-Gly-OH): 66%

Compound: CC(C)C[C@H](NC(=O)[C@H](C)N)C(=O)N[C@@H](Cc1ccccc1)C(=O)N(C)CC(=O)O [Compound 6, NH2-Ala-Leu-Phe-NMeGly-OH] (H-ALF[Sar]-OH)
- Radicle growth inhibition (%) [5]: 92% and greater than 85%

Compound: Cyclo-[N-MeAla-Leu-N-MePhe-Gly]
- ring closure, isolated yield [4]: 47%

Compound: CC(C)C[C@@H]1NC(=O)[C@H](C)NC(=O)CN(C)C(=O)[C@H](Cc2ccccc2)NC1=O [Cyclo-[Ala-Leu-Phe-N-MeGly]]
- ring closure, isolated yield ([4]; from H-Ala-Leu-Phe-MeGly-OH): 40%

Compound: C[C@@H]1NC(=O)[C@@H](Cc2ccccc2)N(C)C(=O)CN(C)C(=O)[C@H](Cc2ccccc2)NC1=O [Compound 26, Cyclo-[N-Me-D-Phe-Ala-Phe-N-MeGly]] (cyclo([dNMeF]AF[Sar]))
- Radicle growth inhibition (%) ([6]; 7 µM, 12 days, relative to DMSO control): 45%
- Radicle growth inhibition (%) ([6]; 45 µg/mL, 12 days, relative to DMSO control): 67%

Compound: Cyclo-[N-MeAla-Leu-D-Phe-Gly] (head to tail) [Compound 20]
- Radicle growth inhibition (%) [5]: 74%
- Radicle growth inhibition (%) [6, 7]: 32%

Compound: CC(C)C[C@@H]1NC(=O)[C@H](C)N(C)C(=O)CN(C)C(=O)[C@H](Cc2ccccc2)NC1=O [Cyclo-[N-MeAla-Leu-Phe-N-MeGly]]
- ring closure, isolated yield ([4]; from H-MeAla-Leu-Phe-MeGly-OH): 38%

Compound: CN[C@@H](C)C(=O)N[C@@H](Cc1ccccc1)C(=O)N(C)[C@@H](Cc1ccccc1)C(=O)NCC(=O)O [Compound 13, N-MeAla-Phe-N-MePhe-Gly-OH] (H-[NMeA]F[NMeF]G-OH)
- Radicle growth inhibition (%) [5]: greater than 85%
- Radicle growth inhibition (%) ([6]; 5 µM, 12 days, relative to DMSO control): 38%

Compound: Cyclo-[N-MeAla-Leu-Phe-Gly] (head to tail) [Compound 17]
- Radicle growth inhibition (%) [6, 7]: 10%

Compound: Cyclo-[N-Me-D-Phe-Ala-Phe-N-MeGly]
- ring closure, isolated yield [4]: 17%

Compound: CCc1cccc(C)c1N(C(=O)CCl)[C@@H](C)COC [S-metolachlor, reference compound]
- inhibition at 2.1 µg/mL ([5]; Lolium multiflorum, 288 h, positive control at 2.1 µg/mL (1/8 of the commercial dose), 12 days, read-out: Radicle growth inhibition (%)): 100%

Compound: CC(C)C[C@H](NC(=O)[C@H](C)N)C(=O)N(C)[C@@H](Cc1ccccc1)C(=O)N(C)CC(=O)O [Compound 10, NH2-Ala-Leu-N-MePhe-N-MeGly-OH] (H-AL[NMeF][Sar]-OH)
- Radicle growth inhibition (%) [5]: greater than 85%
- Radicle growth inhibition (%) [6, 8]: 15%

Compound: C[C@H]1C(=O)N[C@@H](Cc2ccccc2)C(=O)N(C)[C@@H](Cc2ccccc2)C(=O)NCC(=O)N1C [Compound 25, Cyclo-[N-MeAla-Phe-N-MePhe-Gly]] (cyclo([NMeA]F[NMeF]G))
- Radicle growth inhibition (%) [5]: 96% and greater than 85%
- Radicle growth inhibition (%) ([6]; 4 µM, 12 days, relative to DMSO control): 41%

Compound: CC(C)C[C@@H]1NC(=O)[C@H](C)N(C)C(=O)CN(C)C(=O)[C@H](Cc2ccccc2)NC1=O [Compound 23, Cyclo-[N-MeAla-Leu-Phe-N-MeGly]] (cyclo([NMeA]LF[Sar]))
- Radicle growth inhibition (%) [5]: 16%

Compound: CC(C)C[C@H](NC(=O)[C@H](C)N)C(=O)N(C)[C@H](Cc1ccccc1)C(=O)NCC(=O)O [Compound 7, NH2-Ala-Leu-N-Me-D-Phe-Gly-OH] (H-AL[dNMeF]G-OH)
- Radicle growth inhibition (%) [5]: 94% and greater than 85%
- Radicle growth inhibition (%) [6, 8]: 48%

Compound: CC(C)C[C@@H]1NC(=O)[C@H](C)NC(=O)CN(C)C(=O)[C@H](Cc2ccccc2)N(C)C1=O [Cyclo-[Ala-Leu-N-MePhe-N-MeGly]]
- ring closure, isolated yield ([4]; from H-Ala-Leu-MePhe-MeGly-OH): 33%

Compound: Cyclo-[N-MeAla-Phe-N-MePhe-Gly]
- ring closure, isolated yield [4]: 86%

Compound: Cyclo-[N-MeAla-Leu-Phe-Gly]
- ring closure, isolated yield [4]: 48%

Compound: CC(C)C[C@@H]1NC(=O)[C@H](C)N(C)C(=O)CNC(=O)[C@H](Cc2ccccc2)N(C)C1=O [Compound 24, Cyclo-[N-MeAla-Leu-N-MePhe-Gly]] (cyclo([NMeA]L[NMeF]G))
- Radicle growth inhibition (%) [5]: 81%
- Radicle growth inhibition (%) ([6]; 10 µM, 12 days, relative to DMSO control): 62%

Compound: Cyclo-[Ala-Leu-N-Me-D-Phe-Gly] (head to tail) [Compound 19]
- Radicle growth inhibition (%) [5]: 87% and greater than 85%
- Radicle growth inhibition (%) ([6]; 9 µM, 12 days, relative to DMSO control): 53%

Compound: CC(C)C[C@@H]1NC(=O)[C@H](C)NC(=O)CN(C)C(=O)[C@@H](Cc2ccccc2)NC1=O [Cyclo [Ala-Leu-D-Phe-N-MeGly]]
- ring closure, isolated yield ([4]; from H-Ala-Leu-dPhe-MeGly-OH): 76%

Compound: Cyclo-[Ala-Leu-D-Phe-Gly] (head to tail) [Compound 16]
- Radicle growth inhibition (%) [5]: inactive

Compound: CN[C@H](Cc1ccccc1)C(=O)N[C@@H](C)C(=O)N[C@@H](Cc1ccccc1)C(=O)N(C)CC(=O)O [Compound 14, N-Me-D-Phe-Ala-Phe-N-MeGly-OH] (H-[dNMeF]AF[Sar]-OH)
- Radicle growth inhibition (%) ([6]; 67 µM as printed): 53%

Compound: Cyclo-[Phe-N-MeGly-Cys(Bn)-N-MeGly]
- ring closure, isolated yield [4]: 54%

Compound: Cyclo-[N-MeAla-Leu-D-Phe-Gly]
- ring closure, isolated yield [4]: 67%
